The values that follow come from patent US20210387973A1, “SUBSTITUTED HETEROCYCLIC COMPOUNDS AND THEIR USE AS RETINOID-RELATED ORPHAN RECEPTOR (ROR) GAMMA-T INHIBITORS” (Technische Universiteit Eindhoven, priority 2019, published 2021).

Like-named read-outs stand apart in the source and are kept apart here.

As usually defined, the Hill slope is a measure of the steepness of the concentration-response curve. The term IC50 denotes the point on the concentration scale where inhibition reaches its midpoint.

The target of experiment [1] is T1, His6-RORγt ligand binding domain (Homo sapiens, UniProt P51449).
T1 sequence (P51449 269-508 limits assumed): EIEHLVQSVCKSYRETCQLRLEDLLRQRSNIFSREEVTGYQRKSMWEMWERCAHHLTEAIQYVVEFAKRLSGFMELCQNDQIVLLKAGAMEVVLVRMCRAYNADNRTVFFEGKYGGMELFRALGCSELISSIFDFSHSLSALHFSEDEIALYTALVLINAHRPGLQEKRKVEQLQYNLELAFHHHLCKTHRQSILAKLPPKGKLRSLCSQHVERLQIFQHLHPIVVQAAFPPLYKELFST
Kind of experiment: TR-FRET coactivator recruitment assay. It is filed as biochemical. Particulars: for Dependence of coactivator recruitment inhibition on cholesterol: fixed concentrations of orthosteric agonist cholesterol. The procedure: In the present application the IC50 is determined according to a biochemical TR-FRET assay. […] A terbium labelled anti-His antibody (CisBio Bioassays, 61HISTLA) and D2-labelled streptavidin (CisBio Bioassays, 610SADLA) are used at the concentrations recommended by the supplier. Compounds (dissolved in DMSO) are titrated using a 2× dilution series in Corning white low volume, low binding, 384-well plates at a final volume of 10 μL The final DMSO concentration being 2% v/v throughout. […] The data is analyzed with Origin Software. The dose-response curve was fitted represented by:
Where y is the FRET ratio, A1 is the bottom asymptote, A2 is the top asymptote, p is the Hills slope and x is the ligand concentration.
The coactivator recruitment TR-FRET assay was performed in the presence of increasing fixed concentrations of cholesterol, a well characterized orthosteric agonist.
A terbium labelled anti-His antibody (CisBio Bioassays, 61HISTLA) and D2-labelled streptavidin (CisBio Bioassays, 610SADLA) were used at the concentrations recommended by the supplier. Compounds (dissolved in Dimethyl sulfoxide—DMSO) were titrated using a 2× dilution series from a highest final concentration of […] such that the final DMSO concentration was 2% v/v throughout.
(In general: In TR-FRET formats the signal depends on donor and acceptor labels being close together.)

Another experiment deals with T2, His6-RORγt (Homo sapiens, UniProt P51449).
T2 sequence (P51449 1-497 isoform P51449-2): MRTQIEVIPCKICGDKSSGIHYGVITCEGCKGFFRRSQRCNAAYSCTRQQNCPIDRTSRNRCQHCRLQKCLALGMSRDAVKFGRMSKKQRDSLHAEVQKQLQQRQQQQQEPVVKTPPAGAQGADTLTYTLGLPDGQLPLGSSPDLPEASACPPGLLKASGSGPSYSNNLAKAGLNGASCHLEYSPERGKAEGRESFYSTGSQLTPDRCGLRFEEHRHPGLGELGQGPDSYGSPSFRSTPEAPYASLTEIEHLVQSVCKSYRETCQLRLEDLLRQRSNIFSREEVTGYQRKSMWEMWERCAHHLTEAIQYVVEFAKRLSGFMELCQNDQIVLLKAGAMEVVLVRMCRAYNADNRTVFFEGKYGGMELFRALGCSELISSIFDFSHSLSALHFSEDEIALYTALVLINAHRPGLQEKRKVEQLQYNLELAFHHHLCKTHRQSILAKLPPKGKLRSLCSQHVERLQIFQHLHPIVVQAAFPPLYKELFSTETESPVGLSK
The experiment in a line: Allosteric ligand displacement assay (AlexaFluor 647 probe, FRET). It is filed as binding. The source says:
To provide further evidence for allosteric ligand binding we used an orthogonal assay to directly probe for allosteric ligand binding (as opposed to measuring the indirect effects on coactivator recruitment).

The mark [2] stands for this setting: Table 2, cholesterol concentration of 0 μM, read-out: IC50.

Consider `O=C(O)c1ccc(NCc2c(-c3c(Cl)cccc3C(F)(F)F)noc2-c2cc[nH]c2)cc1` [Compound 1], for which the Hill slope in experiment [1] (0 μM Cholesterol) is −0.45 ± 0.02; in experiment [1] (0.1 μM Cholesterol), −0.74 ± 0.03; in experiment [1] (1.0 μM Cholesterol), −0.86 ± 0.03. Further, in experiment [1], the “Dependence of coactivator recruitment inhibition on cholesterol” value is recorded as “independent of increasing concentrations of cholesterol”. Take `O=C(O)c1ccc(NCc2c(-c3c(Cl)cccc3C(F)(F)F)noc2-c2ccccc2)cc1` [GV068]: the IC50 in experiment [1] (setting [2]) turned out to be 9.6 µM.

For the molecule `O=C(O)c1ccc(NCc2c(-c3c(Cl)cccc3C(F)(F)F)noc2-c2ccco2)cc1` [RD149], the IC50 in experiment [1] (setting [2]) stood at 1.1 µM.

As to `O=C(O)c1ccc(NC(=O)c2c(-c3c(Cl)cccc3C(F)(F)F)noc2-c2ccccc2)cc1F` [RD082], in experiment [1] (setting [2]), the IC50 was determined as 91.1 µM.

`O=C(O)c1ccc(CNC(=O)c2c(-c3c(Cl)cccc3C(F)(F)F)noc2-c2ccccc2)cc1` [RD065]: the IC50 in experiment [1] (setting [2]) was determined as 8.8 µM.

On to `O=C(O)c1ccc(-c2c(-c3c(Cl)cccc3C(F)(F)F)noc2-c2ccccc2)cc1` [GV020], for which the IC50 in experiment [1] (setting [2]) was determined as 8.2 µM. On the same count and under the same terms, the same measure for `O=C(O)c1ccc(S(=O)(=O)Nc2c(-c3c(Cl)cccc3C(F)(F)F)noc2-c2ccccc2)cc1` [GV031]: 62.6 µM. The same measure, in the same setting: the same measure for `O=C(O)c1ccc(/N=C/c2c(-c3c(Cl)cccc3C(F)(F)F)noc2-c2cc[nH]c2)cc1` [AS89]: 46.6 µM; for `O=C(O)c1ccc(NCc2c(-c3c(Cl)cccc3C(F)(F)F)noc2-c2cccs2)cc1` [RD329]: 1.8 µM. Same read-out and setting: under `O=C(O)c1ccc(NC(=O)c2c(-c3c(Cl)cccc3C(F)(F)F)noc2-c2ccccc2)cc1` [RD032] stands 53.5 µM; under `O=C(O)c1ccc(NCc2c(-c3c(Cl)cccc3C(F)(F)F)noc2-c2cccc(O)c2)cc1` [RD369], 6.6 µM. As to `C[C@H]1O[C@@H](O[C@H]2[C@@H](O)C[C@H](O[C@H]3[C@@H](O)C[C@H](O[C@H]4CC[C@@]5(C)[C@H](CC[C@@H]6[C@@H]5C[C@@H](O)[C@]5(C)[C@@H](C7=CC(=O)OC7)CC[C@]65O)C4)O[C@@H]3C)O[C@@H]2C)C[C@H](O)[C@@H]1O` [Compound C, reference compound], the IC50 was more than 5 µM at His6-RORγt (displacement of Alexa Fluor 647 probe, read-out: AlexaFluor Probe Competition IC50); more than 50 µM on His6-RORγt (read-out: IC50 for displacement of the Alexa Fluor 647 probe); 0.774 ± 0.0816 µM in experiment [1] (0 μM Cholesterol, read-out: IC50); 5.47 ± 0.456 µM in experiment [1] (0.1 μM Cholesterol, read-out: IC50); 32.4 ± 1.69 µM in experiment [1] (1.0 μM Cholesterol, read-out: IC50); 0.774 ± 0.0816 µM in experiment [1] (as listed beside probe competition (0 μM cholesterol values), read-out: Coactivator Recruitment IC50). For the same molecule, the Hill slope in experiment [1] (0 μM Cholesterol) was −0.53 ± 0.03; in experiment [1] (0.1 μM Cholesterol), −0.54 ± 0.02; in experiment [1] (1.0 μM Cholesterol), −0.87 ± 0.04. Also, in experiment [1], the “Dependence of coactivator recruitment inhibition on cholesterol” value is recorded as “cholesterol-dependent activity profile”.

`O=C(O)c1cccc(NC(=O)c2c(-c3c(Cl)cccc3C(F)(F)F)noc2-c2ccccc2)c1` [RD061]: the IC50 in experiment [1] (setting [2]) is 73.9 µM. Still for that read-out and setting: the same measure for `O=C(O)c1ccc(CNc2c(-c3c(Cl)cccc3C(F)(F)F)noc2-c2ccccc2)cc1` [GV032]: 30.9 µM.
